Laboratory results from ChEMBL document CHEMBL4049404, “Discovery of (R)-1-(3-(4-Amino-3-(3-chloro-4-(pyridin-2-ylmethoxy)phenyl)-1H-pyrazolo[3,4-d]pyrimidin-1-yl)piperidin-1-yl)prop-2-en-1-one (CHMFL-EGFR-202) as a Novel Irreversible EGFR Mutant Kinase Inhibitor with a Distinct Binding Mode” (J Med Chem, 2017).

Assays:
[1] = biological target: Serine/threonine-protein kinase 10 (Homo sapiens) (UniProt O94804); assay: Binding affinity to wild-type human LOK expressed in bacterial system assessed as control score at 1 uM by KINOMEScan assay
Chain of Serine/threonine-protein kinase 10 (Homo sapiens) (O94804 whole entry, looked up): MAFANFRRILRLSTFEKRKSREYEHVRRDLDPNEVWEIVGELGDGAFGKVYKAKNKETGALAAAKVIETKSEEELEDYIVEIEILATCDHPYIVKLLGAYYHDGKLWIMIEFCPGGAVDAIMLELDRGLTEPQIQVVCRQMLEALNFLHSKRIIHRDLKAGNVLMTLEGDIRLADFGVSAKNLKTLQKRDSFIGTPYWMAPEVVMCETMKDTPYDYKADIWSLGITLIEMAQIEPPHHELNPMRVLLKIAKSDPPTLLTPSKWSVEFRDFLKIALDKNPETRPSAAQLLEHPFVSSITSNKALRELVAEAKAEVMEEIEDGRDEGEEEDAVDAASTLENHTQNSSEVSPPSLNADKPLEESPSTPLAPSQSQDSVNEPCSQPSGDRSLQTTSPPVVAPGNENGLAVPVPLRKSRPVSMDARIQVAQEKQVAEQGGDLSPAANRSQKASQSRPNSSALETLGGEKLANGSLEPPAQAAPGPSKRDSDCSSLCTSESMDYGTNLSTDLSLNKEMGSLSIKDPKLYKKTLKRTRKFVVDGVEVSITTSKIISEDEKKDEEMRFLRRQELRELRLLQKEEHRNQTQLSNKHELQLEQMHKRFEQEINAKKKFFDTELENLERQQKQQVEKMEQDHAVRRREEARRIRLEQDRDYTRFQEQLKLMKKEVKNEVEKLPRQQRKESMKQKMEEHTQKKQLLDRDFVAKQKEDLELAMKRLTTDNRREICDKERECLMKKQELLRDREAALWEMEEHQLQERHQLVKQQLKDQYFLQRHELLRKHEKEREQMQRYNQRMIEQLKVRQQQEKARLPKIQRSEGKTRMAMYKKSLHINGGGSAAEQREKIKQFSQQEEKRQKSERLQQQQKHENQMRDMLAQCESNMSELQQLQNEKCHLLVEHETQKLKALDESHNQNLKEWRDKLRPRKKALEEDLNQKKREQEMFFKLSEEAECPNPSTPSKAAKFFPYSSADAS

[2] = biological target: T1, Epidermal growth factor receptor (Homo sapiens, UniProt P00533); assay: Inhibition of wild-type EGFR in human A549 cells assessed as reduction in 4EBP1 phosphorylation at Thr37/46 site at 0.01 to 3 uM by Western blot analysis; format: cell-based; settings: a549, 3 µM
T1 sequence (P00533 whole entry): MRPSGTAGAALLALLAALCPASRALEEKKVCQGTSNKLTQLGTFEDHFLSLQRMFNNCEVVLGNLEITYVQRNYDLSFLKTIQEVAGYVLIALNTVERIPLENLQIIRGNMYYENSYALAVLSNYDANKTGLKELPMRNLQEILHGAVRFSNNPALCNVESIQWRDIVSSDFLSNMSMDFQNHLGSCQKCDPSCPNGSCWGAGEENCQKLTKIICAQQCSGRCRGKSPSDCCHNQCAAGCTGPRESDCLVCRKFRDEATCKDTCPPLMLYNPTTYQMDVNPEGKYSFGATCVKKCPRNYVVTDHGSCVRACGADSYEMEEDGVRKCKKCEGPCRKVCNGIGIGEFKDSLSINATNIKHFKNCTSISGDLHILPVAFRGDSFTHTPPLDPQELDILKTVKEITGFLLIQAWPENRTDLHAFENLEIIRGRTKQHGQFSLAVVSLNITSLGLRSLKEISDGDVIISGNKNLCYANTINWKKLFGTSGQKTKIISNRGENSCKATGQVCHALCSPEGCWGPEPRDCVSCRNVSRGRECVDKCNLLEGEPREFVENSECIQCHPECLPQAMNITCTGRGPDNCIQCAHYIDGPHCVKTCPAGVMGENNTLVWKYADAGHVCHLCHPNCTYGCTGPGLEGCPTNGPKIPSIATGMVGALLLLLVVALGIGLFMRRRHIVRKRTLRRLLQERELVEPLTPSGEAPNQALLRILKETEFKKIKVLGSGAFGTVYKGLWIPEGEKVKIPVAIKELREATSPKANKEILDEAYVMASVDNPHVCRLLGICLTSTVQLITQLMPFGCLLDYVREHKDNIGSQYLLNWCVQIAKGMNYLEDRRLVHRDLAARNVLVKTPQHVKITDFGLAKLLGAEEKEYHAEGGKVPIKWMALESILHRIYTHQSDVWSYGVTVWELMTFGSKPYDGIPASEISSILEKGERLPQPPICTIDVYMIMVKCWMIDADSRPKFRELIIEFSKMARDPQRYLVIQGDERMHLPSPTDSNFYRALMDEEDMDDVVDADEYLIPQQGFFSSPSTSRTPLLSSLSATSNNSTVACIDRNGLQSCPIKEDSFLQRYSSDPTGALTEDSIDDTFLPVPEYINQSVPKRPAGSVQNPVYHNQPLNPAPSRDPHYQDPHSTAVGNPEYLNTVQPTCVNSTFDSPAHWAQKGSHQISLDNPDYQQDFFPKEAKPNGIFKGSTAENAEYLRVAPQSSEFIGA

[3] = biological target: Epidermal growth factor receptor (Homo sapiens, UniProt P00533, EX19DEL); assay: Inhibition of EGFR exon 19 deletion mutant in human PC9 cells assessed as reduction in ERK phosphorylation at Thr202/Tyr204 measured after 4 hrs by Western blot analysis; format: cell-based
Chain of Epidermal growth factor receptor (Homo sapiens, UniProt P00533, EX19DEL) (P00533 whole entry, looked up, stated change not applied): as the sequence (P00533 whole entry) above

[4] = biological target: T1, Epidermal growth factor receptor; assay: Inhibition of wild-type EGFR in human NCI-H2122 cells assessed as growth inhibition after 72 hrs by CellTiter-Glo assay; format: cell-based
[5] = biological target: Tyrosine-protein kinase BTK (Homo sapiens, UniProt Q06187); assay: Binding affinity to full-length wild-type human BTK expressed in mammalian system assessed as control score at 1 uM by KINOMEScan assay
Chain of Tyrosine-protein kinase BTK (Q06187 whole entry): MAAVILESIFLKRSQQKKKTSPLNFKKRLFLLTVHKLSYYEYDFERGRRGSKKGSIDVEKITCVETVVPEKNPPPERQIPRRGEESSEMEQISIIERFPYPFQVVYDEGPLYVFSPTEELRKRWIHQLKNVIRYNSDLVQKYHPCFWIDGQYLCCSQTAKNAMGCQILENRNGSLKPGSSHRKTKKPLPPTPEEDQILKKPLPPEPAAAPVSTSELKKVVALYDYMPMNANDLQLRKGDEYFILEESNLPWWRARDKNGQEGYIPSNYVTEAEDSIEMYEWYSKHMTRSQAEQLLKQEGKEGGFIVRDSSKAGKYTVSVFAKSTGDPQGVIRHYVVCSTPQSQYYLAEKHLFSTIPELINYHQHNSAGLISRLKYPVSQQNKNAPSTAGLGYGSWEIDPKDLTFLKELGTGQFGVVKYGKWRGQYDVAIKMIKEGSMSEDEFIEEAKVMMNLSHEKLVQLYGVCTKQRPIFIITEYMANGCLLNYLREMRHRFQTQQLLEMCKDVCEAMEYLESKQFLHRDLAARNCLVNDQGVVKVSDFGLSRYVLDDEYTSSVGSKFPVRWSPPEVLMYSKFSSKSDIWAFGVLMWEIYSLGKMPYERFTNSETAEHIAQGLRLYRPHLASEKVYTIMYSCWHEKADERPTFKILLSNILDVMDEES

[6] = biological target: T1, Epidermal growth factor receptor; assay: Inhibition of wild type EGFR autophosphorylation at Y1068 in human NCI-H2122 cells at 0.01 to 3 uM after 4 hrs by Western blot analysis; format: cell-based
[7] = Oral bioavailability in Sprague-Dawley rat at 10 mg/kg after 24 hrs; format: ADME, organism-based; settings: in vivo
[8] = biological target: T1, Epidermal growth factor receptor; assay: Inhibition of recombinant human GST-tagged EGFR cytoplasmic domain expressed in baculovirus by Z'-LYTE assay
[9] = MRT (0 to infinity) in Sprague-Dawley rat plasma at 10 mg/kg, po after 24 hrs; format: ADME, organism-based
[10] = biological target: T1, Epidermal growth factor receptor; assay: Inhibition of wild-type EGFR in human A549 cells assessed as reduction in Akt phosphorylation at 308 site at 0.01 to 3 uM by Western blot analysis; format: cell-based; settings: a549, 3 µM
[11] = biological target: Insulin-like growth factor 1 receptor (Homo sapiens) (UniProt P08069); assay: Inhibition of Tel-fused IGF1R (unknown origin) expressed in mouse BAF3 cells assessed as growth inhibition after 72 hrs by CellTiter-Glo assay; format: cell-based
[12] = biological target: T1, Epidermal growth factor receptor; assay: Inhibition of wild-type EGFR in human A549 cells assessed as reduction in P70S6K phosphorylation at Thr389 site at 0.01 to 3 uM by Western blot analysis; format: cell-based; settings: a549, 3 µM
[13] = biological target: Epidermal growth factor receptor (Homo sapiens, UniProt P00533, L858R/T790M); assay: Inhibition of EGFR L858R/T790M mutant in human NCI-H1975 cells assessed as reduction in ERK phosphorylation at Thr202/Tyr204 measured after 4 hrs by Western blot analysis; format: cell-based
[14] = biological target: T1, Epidermal growth factor receptor; assay: Inhibition of wild-type EGFR in human A549 cells assessed as reduction in eIF4E phosphorylation at Ser209 site at 0.01 to 3 uM by Western blot analysis; format: cell-based; settings: a549, 3 µM
[15] = test system: Rattus norvegicus; assay: AUC (0 to infinity) in Sprague-Dawley rat plasma at 10 mg/kg, po after 24 hrs; format: ADME, organism-based; design: dose 10 mg/kg, time infinity, route oral; settings: in vivo
[16] = Apparent plasma clearance in Sprague-Dawley rat after 24 hrs at 10 mg/kg, po; format: ADME, organism-based
[17] = test system: Rattus norvegicus; assay: AUC (0 to infinity) in Sprague-Dawley rat plasma at 1 mg/kg, iv after 8 hrs; format: ADME, organism-based; design: dose 1 mg/kg, route intravenous, time infinity; settings: in vivo
[18] = biological target: T1, Epidermal growth factor receptor; assay: Inhibition of wild-type EGFR in human NCI-H2122 cells assessed as reduction in STAT3 phosphorylation at Y705 site at 0.01 to 3 uM by Western blot analysis; format: cell-based

For `C=CC(=O)N1CCC[C@@H](n2nc(-c3ccc(OCc4ccccn4)c(Cl)c3)c3c(N)ncnc32)C1`, the Activity [1] was 0.95%, the “inhibition (INH)” value [2] was “Not Active” and the EC50 [3] was less than 10 nM. The GI50 [4] was greater than 10000 nM, the Activity [5] was 0.05% and the “inhibition (INH)” value [6] was “Active”. It also gave a bioavailability [7] of 10.3%, an IC50 [8] of 8.3 nM and an MRT inf [9] of 2.55 h. The “inhibition (INH)” value [10] was “Not Active”, the GI50 [11] was greater than 10000 nM and the “inhibition (INH)” value [12] was “Not Active”. The EC50 [13] was less than 10 nM, the “inhibition (INH)” value [14] was “Not Active” and the AUC [15] was 441 ng·h/mL. For the same compound, the CL/F [16] was 406 mL/min/kg, the AUC [17] was 405 ng·h/mL and the “inhibition (INH)” value [18] was “Not Active”.
